Source: US5885961A, “Methods of using epithelins to modulate cell proliferation” (Bristol-Myers Squibb Company, priority 1995, dated 1999)
“Also recorded” adds a separate entry of the source.

Tests used:
[1] = test system: NRK-SA6 cells; settings: in the presence of TGFβ; Roberts et al., 1981; cited from earlier work
[2] = test system: Balb/MK cells; test: Murine keratinocyte growth assay (cell count); type: cell-based; settings: for effect on growth of Balb/MK cells (rodent keratinocytes): FIG. 16A
Protocol: FIG. 16(A-B). (FIG. 16A) Effect of epithelin 1 and epidermal growth factor (EGF) on the growth of Balb/MK cells. Assays were performed as described in Section 6.2., infra. .circle-solid., epithelin 1; o, EGF (FIG. 16B) Effect of various concentrations of epithelin 2 on the epithelin 1 (20 ng/ml) induced growth of murine keratinocytes.
Balb/MK cells were plated at 1×10^4 cells per well in 1 ml of low calcium medium (Weissman and Aaronson, 1983, Cell 32:599-606; Carpenter and Zendegut, 1985, Anal. Biochem. 153:279-282) in 24-well Costar plates and incubated at 37° C. for 4-6 hours. Then media were removed and replaced with 1 ml of medium containing various concentrations of the test compound in triplicate. The control wells received only medium without any test material. The plates were incubated at 37° C. for 4 days, then medium was removed, wells were rinsed two times with 1 ml of phosphate-buffered saline, and the cells were detached with trypsin-EDTA and counted.

[3] = test system: NRK cells; test: Mitogenic activity on NRK cells in monolayer; type: cell-based, rat
[4] = test system: Balb/MK cells; test: Growth stimulatory activity (GSA), 125I-deoxyuridine incorporation into DNA of murine keratinocytes; type: cell-based
Protocol: FIG. 15(A-B). (FIG. 15A) Effect of epithelin 1 and epithelin 2 on the stimulation of ^125 I-deoxyuridine incorporation into DNA of the murine keratinocyte cell line Balb/MK. 2,000-4,000 cells were plated per well in 96 well plates in low-calcium medium containing 5% dialyzed FBS. Then GSA assays were performed as described in Section 6.2., infra. .circle-solid., epithelin 1; o, epithelin 2. (FIG. 15B) Effect of various concentrations of epithelin 2 on epithelin 1 (20 ng/ml) elicited incorporation of ^125 I-deoxyuridine into DNA of Balb/MK cells.
Balb/MK cells were also used as indicator cells in 96 well plates to assess the growth inhibitory activity (GIA) or growth stimulatory activity (GSA) of a test material using ^125 I-deoxyuridine incorporation into DNA as described in the previous section.

[5] = test system: mink lung CCL 64 cells; test: 125I-deoxyuridine incorporation into DNA, CCL 64; type: cell-based
[6] = test system: A431 human epidermoid carcinoma cells; test: Cell growth inhibitory activity (GIA), 125I-deoxyuridine incorporation into DNA; type: cell-based
Protocol: The cell growth inhibitory activity (GIA) assays were performed in flat-bottom 96 well plates (Falcon 3072). Human epidermoid carcinoma of vulva cells (A431) were used as test cells for GIA. 3.5×10^3 cells in 50 μl of test medium (DMEM supplemented with 5% heat inactivated fetal bovine serum (FBS), penicillin/streptomycin (PS) and glutamine) were placed in all wells except peripheral wells. The peripheral wells received 50 μl PBS. Three hours later, 50 μl of test sample in test medium was added to each well, while control wells received only 50 μl of test medium. Three wells were used for each concentration of test sample. Plates were incubated at 37° C. for 2-3 days. Then, 100 μl of a solution of […] (^125 I-IUdR, 4Ci/mg-0.5 mCi/ml, 2 μl/ml in test medium) was added to each well and plates were incubated at 37° C. After 4-6 hours, the medium was aspirated from the wells, which were then washed once with 200 μl PBS. Then, 200 μl methanol was added to each well, plates were incubated for 10 minutes at room temperature, and the methanol was removed by aspiration. 200 μl of 1M sodium hydroxide was added to each well, the plates were incubated for 30 minutes at 37° C. Sodium hydroxide was removed with titertek plugs (Flow Labs). The plugs were transferred into 12×75 mm plastic tubes and counted in a gamma counter to quantify ^125 I-IUdR incorporation.

[7] = biological target: EGF receptors (Homo sapiens, UniProt P00533); test: Binding of 125I-EGF to its receptors
[8] = Resistance of bioactivity to chemical, heat and enzyme treatment; type: physicochemical
Protocol: Epithelin 1 and epithelin 2 are resistant to treatment with 1M acetic acid, 1M ammonium hydroxide, 6M urea, 0.01M sodium metaperiodate, to heating at 56° C. for 30 minutes, and to treatment with various glycosidases or lipases. However, epithelin activity was sensitive to reduction, to reduction and 4-vinylpyridine treatment, and to digestion with proteinases such as trypsin, endoproteinase Lys-C, and endoproteinase Glu-C (V8).

[9] = test system: human fibroblasts and several other human tumor cells; test: 125I-deoxyuridine incorporation into DNA, human fibroblasts and other human tumor cells; type: cell-based; settings: maximum dose tested: 20 ng/ml epithelin 1, 270 ng/ml epithelin 2
[10] = test system: NRK-SA6 cells; test: Soft agar colony assay in the presence of TGFβ; type: cell-based, rat
Protocol: FIG. 17. Effect of epithelin 1 and 2 on NRK-SA6 cell colony formation in soft agar in the presence of TFGβ (1 ng/ml). The colony formation assay used is described in Section 6.2.3, infra. Solid bars, epithelin 1; stippled bar, epidermal growth factor; open bar, epithelin 2; hatched bar, 20 ng/ml epithelin 1 plus 500 ng/ml epithelin 2.
A 0.38 ml base layer of 0.5% agar (Agar Noble; Difco Laboratories, Detroit, Mich.) in DMEM containing 10% heat inactivated FBS was added to 24 well Costar tissue culture plates. 0.38 ml of 0.3% agar containing the same medium-FBS mixture, 6-12×10^3 test cells, and the test proteins at various concentrations were overlaid on the basal layer of agar. The plates were incubated at 37° C. in a humidified atmosphere of 5% CO2 in air. Colonies were enumerated unfixed and unstained, and the number of colonies was scored between days 7 and 10. Colonies were defined as a cluster of at least eight cells.

[11] = test system: monkey kidney COS1 cells; test: 125I-deoxyuridine incorporation into DNA, COS1; type: cell-based
[12] = test system: human colon carcinoma cell line HCT 116; test: 125I-deoxyuridine incorporation into DNA, HCT 116; type: cell-based; settings: maximum dose tested: 20 ng/ml epithelin 1, 270 ng/ml epithelin 2

**Q.** Which results are given for “EGF: epidermal growth factor, comparison growth factor (NSDSECPLSHDGYCLHDGVCMYIEALDKYACNCVVGYIGERCQYRDLKWWELR; UniProt P01133 971-1023, looked up) [reference compound]”?
**A.** anchorage-independent growth of rat kidney cells NRK-SA6 [1]: induces anchorage-independent growth; effect on growth of Balb/MK cells (rodent keratinocytes) [2]: did not proliferate in the absence of EGF or epithelin 1

**Q.** With TGFα: transforming growth factor-α as the substance, how does the “anchorage-independent growth of rat kidney cells NRK-SA6” value [1] read?
**A.** induces anchorage-independent growth

**Q.** Which “mitogenic activity on NRK cells in monolayer” value [3] does the source give for “epithelin 2: single chain polypeptide of 57 amino acid residues, 12 cysteines, purified from rat kidney; antagonizes epithelin 1 growth stimulation (VVCPDAKTQCPDDSTCCELPTGKYGCCPMPNAICCSDHLHCCPQDTVCDLIQSKCIS)” here?
**A.** not

**Q.** What about the IC50 ([4]; Balb/MK cells, epithelin 1 20 ng/ml, FIG. 15B, read-out: 50% inhibition of epithelin 1 elicited 125I-deoxyuridine incorporation) of the same substance?
**A.** ~21 nM

**Q.** What about the “effect on 125I-deoxyuridine incorporation into DNA of Balb/MK cells” value ([4]; FIG. 15A) of the same substance?
**A.** did not show any significant effect

**Q.** What about the “effect on 125I-deoxyuridine incorporation into DNA” value [5] of the same substance?
**A.** significantly inhibited

**Q.** What about the “effect on growth of Balb/MK cells (rodent keratinocytes)” value [2] of the same substance?
**A.** did not exhibit any significant effect; also recorded: no effect

**Q.** And the IC50 ([2]; epithelin 1 20 ng/ml, FIG. 16B, read-out: 50% inhibition of epithelin 1-induced growth of Balb/MK cells)?
**A.** ~7 nM

**Q.** What about the “50% inhibition of DNA synthesis (125I-deoxyuridine incorporation)” value ([6]; A431 cells, purified protein, FIG. 14) of the same substance?
**A.** 450 ng/well

**Q.** What about the IC50 ([6]; A431 cells, read-out: concentration for 50% inhibition of 125I-deoxyuridine incorporation) of the same substance?
**A.** ~750 nM

**Q.** And the “Specific Activity” value ([6]; final purification step Anal TSK-250 (Table III))?
**A.** 3,810 Units/mg

**Q.** And the “specific activity of purified protein (GIA)” value ([6]; one unit = amount inhibiting 125I-deoxyuridine incorporation into A431 cells by 50%)?
**A.** 3.8×10^3 units/mg protein

**Q.** And the “effect on binding of 125I-EGF to its receptors” value [7]?
**A.** Neither epithelin 1 nor epithelin 2 significantly affected the binding

**Q.** What about the “resistance to 1M acetic acid, 1M ammonium hydroxide, 6M urea, 0.01M sodium metaperiodate, heating at 56° C. for 30 minutes, glycosidases or lipases” value [8] of the same substance?
**A.** stable; also recorded: resistant

**Q.** What about the “sensitivity of activity to reduction, reduction and 4-vinylpyridine treatment, and proteinases (trypsin, Lys-C, Glu-C)” value [8] of the same substance?
**A.** sensitive

**Q.** What about the “effect on human fibroblasts and several other human tumor cells” value [9] of the same substance?
**A.** Neither protein exhibited any significant effect

**Q.** And the “inhibition of epithelin 1-induced colony formation in soft agar” value ([10]; epithelin 2 at ~85 nM, epithelin 1 20 ng/ml)?
**A.** about 50%

**Q.** What about the “anchorage-independent growth (colony formation in soft agar) of NRK cells” value ([10]; in the presence of TGFβ 1 ng/ml, FIG. 17) of the same substance?
**A.** did not; also recorded: no effect

**Q.** And the “effect on 125I-deoxyuridine incorporation into DNA” value [11]?
**A.** significantly inhibited

**Q.** What about the “effect on growth of HCT 116 cells” value [12] of the same substance?
**A.** did not show any effect
